For series [1], the system named is collagen-induced thrombocyte aggregation in platelet-rich plasma. Nature of the series: Antithrombotic activity: collagen-induced thrombocyte aggregation (Born and Cross). The note with it: Homo sapiens, 10 min, 10 min incubation at 37° C. Format: cell-based, human (healthy volunteers). The protocol: The thrombocyte aggregation is measured using the Born and Cross method (J. Physiol. 170: 397 (1964)) in platelet-rich plasma taken from healthy volunteers. To inhibit coagulation the blood is mixed with 3.14% sodium citrate in a ratio by volume of 1:10.
The pattern of the decrease in optical density of the platelet suspension is photometrically measured and recorded after the addition of aggregation-triggering substance. The rate of aggregation is concluded from the angle of inclination of the density curve. The point on the curve where there is maximum light transmittance is used to calculate the optical density.
The amount of collagen used is as small as possible but sufficient to produce an irreversible reaction curve. Standard commercial collagen produced by Hormonchemie of Munich is used. Before the addition of the collagen the plasma is incubated for 10 minutes with the substance at 37° C.
From the measurements obtained an EC50 is determined graphically, indicating a 50% change in the optical density in terms of the inhibition of aggregation.

The target in the next series is T1, thromboxane synthetase (Homo sapiens, UniProt P24557).
T1 construct: endogenous in cells; host or cells: washed human platelets (platelet-rich plasma passed through Sepharose 2B)
T1 sequence (P24557 1-533): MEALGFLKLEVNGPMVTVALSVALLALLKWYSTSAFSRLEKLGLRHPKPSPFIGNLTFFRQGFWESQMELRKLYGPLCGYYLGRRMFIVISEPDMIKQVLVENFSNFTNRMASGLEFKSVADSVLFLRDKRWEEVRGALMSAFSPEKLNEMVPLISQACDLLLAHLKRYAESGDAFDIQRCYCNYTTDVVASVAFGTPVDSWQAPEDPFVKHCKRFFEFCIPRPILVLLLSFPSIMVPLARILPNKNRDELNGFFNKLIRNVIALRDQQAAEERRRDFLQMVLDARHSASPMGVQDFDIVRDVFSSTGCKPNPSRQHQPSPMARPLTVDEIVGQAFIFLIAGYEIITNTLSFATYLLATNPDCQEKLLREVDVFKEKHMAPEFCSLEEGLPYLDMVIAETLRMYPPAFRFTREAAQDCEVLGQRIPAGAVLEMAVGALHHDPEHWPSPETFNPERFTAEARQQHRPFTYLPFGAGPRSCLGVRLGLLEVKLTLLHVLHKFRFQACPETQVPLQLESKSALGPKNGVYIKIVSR
Nature of the series: Inhibitory effect on thromboxane synthetase (TXB2 formation from arachidonic acid in human platelets). Format: biochemical. The conditions noted are these: inhibition of TXB2 formation, human platelet suspension, 14C-arachidonic acid. How it is done: Venous human blood is anti-coagulated with 13 mM Na3 citrate and centrifuged for 10 minutes at 170×g. The supernatant platelet-rich plasma is passed through a Sepharose 2B column in order to remove the plasma proteins. Aliquots of the platelet suspension obtained are incubated with the test substance or with a solvent as control for 10 minutes at ambient temperature and after the addition of ^14 C-labelled arachidonic acid incubation is continued for a further 10 minutes. After this has been stopped with 50 μl of citric acid, extraction is carried out 3× with 500 μl of ethyl acetate and the combined extracts are distilled off with nitrogen. The residue is taken up in ethyl acetate, placed on TLC film and separated with chloroform:methanol:glacial acetic acid:water (90:8:1:0.8, v/v/v/v). The dried TLC films are placed on X-ray film for 3 days, the autoradiograms were developed and the active zones were marked on the film using the autoradiograms. After cutting out, the activity is measured in a scintillation counter and the inhibition of the formation of TXB2 is calculated. The IC50 is determined by linear interpolation.

The test system of the next series is mice. Nature of the series: Acute toxicity, oral, mice. It is filed as in vivo, mouse. The note with it: observation period 14 days; for animals died: 250 mg/kg single oral dose; for Approximate acute toxicity: single oral dose. The protocol: The acute toxicity of the test substances was determined as a guide on groups of 10 mice after oral administration of a single dose (observation period: 14 days): […]

The target of a further series is T2, thromboxane (Homo sapiens, UniProt P21731).
T2 construct: endogenous in cells; host or cells: washed human platelets (platelet-rich plasma passed through Sepharose 2B)
T2 sequence (P21731 1-343): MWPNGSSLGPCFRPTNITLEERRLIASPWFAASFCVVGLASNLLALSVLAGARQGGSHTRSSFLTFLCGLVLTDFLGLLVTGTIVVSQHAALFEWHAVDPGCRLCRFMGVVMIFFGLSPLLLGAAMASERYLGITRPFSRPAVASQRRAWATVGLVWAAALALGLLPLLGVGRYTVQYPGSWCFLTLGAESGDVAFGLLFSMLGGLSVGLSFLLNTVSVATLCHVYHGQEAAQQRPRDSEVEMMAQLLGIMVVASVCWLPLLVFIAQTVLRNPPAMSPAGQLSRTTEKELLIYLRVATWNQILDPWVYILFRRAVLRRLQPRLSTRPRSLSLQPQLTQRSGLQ
The series is described as follows: Thromboxane-antagonistic activity: displacement of 3H-labelled ligand on washed human platelets. Format: binding. The conditions noted are these: displacement of 3H-ligand, human platelet suspension, 60 min ambient temperature. How it is done: Venous human blood is anti-coagulated with 13 mM Na3 citrate and centrifuged for 10 minutes at 170×g. The supernatant platelet-rich plasma is passed through a Sepharose 2B column in order to remove the plasma proteins. Aliquots of the platelet suspension obtained are incubated with the test substance, the ligand (^3 H-labelled) and a marker ([…]) for 60 minutes at ambient temperature and then centrifuged for 20 seconds at 10,000×g. The supernatant is removed and the pellet is dissolved in NaOH. The ^3 H activity in the supernatant corresponds to the free ligand, ^14 C gives the concentration of the marker. ^3 H in the pellet corresponds to the bound ligand whilst ^14 C is used to correct for the ligand in the extracellular space. After the process has been repeated, the displacement curve is determined from the binding values for different concentrations of the test substance and the IC50 is determined.

Series [2] deals with production of thromboxane and PGE2 in an isolated lung. Nature of the series: Effect on production of thromboxane and PGE2 in an isolated lung. The arrangement: species or system guinea-pig. How it is done:
Guinea-pigs are killed by a blow to the neck, the lungs are rapidly removed and washed with a tyrode solution through the pulmonary artery. The lung is perfused with the same solution (0.5 ml/min.) and ventilated under negative pressure (frequency: 52 breaths per minute, maximum pressure -20 cm H2 O). A 0.1 ml bolus of bradykinin (0.2 μM) is injected via the pulmonary arteria on two occasions, with approximately 60 minutes between boli. From 30 minutes before the second bradykinin injection 1 μM of substance B is continually added to the lung perfusate. The control lungs are perfused without the added substance. The perfusate is collected for 2 minutes be administration of bradykinin and 10 minutes thereafter. The samples are left to stand for 20 minutes at ambient temperature (conversion of thromboxane A2 into B2) and are then frozen at -20° C.
The concentrations of thromboxane B2 and PGE2 are determined by radioimmunoassay.

Series [3] concerns bronchospasm induced by arachidonic acid. Nature of the series: Inhibition of bronchospasm induced by arachidonic acid. The conditions noted are these: Cavia porcellus, iv; guinea-pigs, injected 10 min before arachidonic acid (0.5-2.0 mg/kg i.v.); graphical extrapolation. It is filed as in vivo, guinea-pig. How it is done:
Guinea-pigs anaesthetised with ethyl urethane and ventilated artificially under pressure limitation are intravenously injected with arachidonic acid (a thromboxane precursor) and the consequent bronchospasms are recorded using a modified form of the method of Konzett and Rossler. The doses of arachidonic acid (0.5-2.0 mg/kg) are selected so as to give a 60% reduction in tidal volume. Increasing doses of test substance B are injected 10 minutes before the arachidonic acid. The percentage inhibition of reduction in tidal volume is determined by comparison of the maximum reduction after the administration of arachidonic acid and the corresponding value after pretreatment with the test substance.

Series [4] deals with lethal effects of endotoxin (E. coli 0111:B4 lipopolysaccharide). The series is described as follows: Inhibition of the lethal effects of endotoxin. Format: in vivo, rat (male Sprague-Dawley). The protocol: Male Sprague-Dawley rate are primed by intravenous injection with 0.1 mg/kg of endotoxin (a lipopolysaccharide from E. coli 0111:B4) one week before the main study. In the main study, a potentially lethal dose of E. coli (40 mg/kg) is injected intravenously and the subsequent mortality recorded over an observation period of seven days.
The test animals are given test substance B as a suspension in 0.5% tylose by oral route one hour before and 4, 8, 24 and 48 hours after the second injection of endotoxin.

Setting [5] is: 1 mg/kg oral at each dosage time point (1 h before, 4, 8, 24, 48 h after endotoxin).
The mark [6] stands for this setting: 10 mg/kg oral at each dosage time point (1 h before, 4, 8, 24, 48 h after endotoxin).

“And” between values parts separate entries of the source, which are not always exact repeats. Equal values may be shown once.

In general, EC50 refers to the concentration needed to bring the measured effect to its halfway point. The term IC50 denotes the concentration that gives 50% inhibition. As to `Cc1ccc(S(=O)(=O)NC2Cc3ccc(C(=CCCCC(=O)O)c4cccnc4)cc3C2)cc1` (stereo not shown) [A], in series [1], a half-maximal effect (EC50) was put at 300 nM. Besides, the figures for the 50% inhibitory concentration (IC50) against thromboxane synthetase and at thromboxane were 3 nM and 23 nM, respectively. In addition, the animals died in the series with mice is given as 0 out of 10. This compound came in with an Approximate acute toxicity with mice of 250 mg/kg.

In general, ED50 refers to the midpoint of the dose-response relation. Take `O=C(O)CCCC=C(c1ccc(CCNS(=O)(=O)c2ccc(Cl)cc2)cc1)c1cccnc1` [B]: in series [2] (1 μM in lung perfusate), the “effect on formation of PGE2 (in words)” value was “promoting the formation of PGE2” and the “effect on thromboxane production (in words)” value is on record as “hinders thromboxane production”. Also, the “Ratio of mediator release after 2nd / after 1st administration of bradykinin: Thromboxane B2” value in series [2] (1 μM in perfusate at time of 2nd bradykinin, individual values, control 1.18, 0.50, 0.84) was determined as 0.0. Also, the “Ratio of mediator release after 2nd / after 1st administration of bradykinin: PGE2” value in series [2] (1 μM in perfusate at time of 2nd bradykinin, individual values, control 1.28, 1.12, 1.09) was 5.08 and 2.23. Further, the midpoint of the response in series [1], the EC50, lay at 150 nM. Also, at thromboxane synthetase, the half-maximal inhibitory concentration (IC50) stood at 0.8 nM. In addition, the ED50 in series [3] was 8.1 µg/kg. Besides, in the series on mice, the animals died is reported as 0 out of 10 and the Approximate acute toxicity is on record as 250 mg/kg. In addition, in series [4] (setting [5]), the “Rats alive/total after 2 days” value is 7/10 and the “Rats alive/total after 7 days” value is reported as 6/10. Moreover, in series [4] (setting [6]), the “Rats alive/total after 2 days” value is reported as 8/10 and the “Rats alive/total after 7 days” value is on record as 5/10. This compound showed a half-maximal inhibitory concentration (IC50) on thromboxane of 20 nM.

As for `O=C(O)CCCCC(c1cccnc1)c1ccc2c(c1)CC(NS(=O)(=O)c1ccc(Cl)cc1)C2` (stereo not shown) [C], the EC50 in series [1] worked out at 300 nM. Moreover, on thromboxane synthetase, the 50% inhibitory concentration (IC50) stood at 3 nM. Besides, in the series with mice, the animals died is on record as 0 out of 10 and the Approximate acute toxicity amounted to 250 mg/kg. For the same compound, the IC50 on thromboxane stood at 80 nM.

`O=C(O)CCCCC(c1ccc(CCNS(=O)(=O)c2ccc(Cl)cc2)cc1)c1cccnc1` (stereo not shown) [D] came in with a half-maximal effective concentration (EC50) in series [1] of 1200 nM. 1 nM corresponded to half-maximal inhibition on thromboxane synthetase (IC50). In the series on mice, the animals died was 0 out of 10 and the Approximate acute toxicity is on record as 250 mg/kg. The compound also yielded a concentration for half-maximal inhibition (IC50) on thromboxane of 80 nM.

Compound `O=C(O)CCCC=C(c1ccc(CCNS(=O)(=O)c2ccc(C(F)(F)F)cc2)cc1)c1cccnc1` [E] registered an EC50 in series [1] of 100 nM. Also, the IC50 on thromboxane synthetase is 6 nM; on thromboxane, 28 nM. In the series with mice, the animals died is recorded as 0 out of 10. In the series on mice, this compound showed an Approximate acute toxicity of 250 mg/kg.

The values are drawn from US5681961A, “Arylsulphonamides, pharmaceutical compositions containing these compounds and processes for preparing them” (Dr. Karl Thomae GmbH, priority 1989, dated 1997).
